The subject of series [1] is patients with septic shock. Briefly: AdrenOSS-2 phase II trial in patients with septic shock and elevated adrenomedullin: mortality vs placebo. The format is in vivo, human. Conditions: for HR 28-day all-cause mortality: vs placebo. The protocol: AdrenOSS-2 is a double-blind, placebo-controlled, randomized, multicenter, proof of concept and dose-finding phase II clinical trial to investigate the safety, tolerability and efficacy of the N-terminal ADM antibody named Adrecizumab in patients with septic shock and elevated adrenomedullin (Geven et al. BMJ Open 2019; 9:e024475). In total, 301 patients with septic shock and bio-ADM concentration >[…] were randomized (2:1:1) to treatment with a single intravenous infusion over approximately 1 hour with either placebo (n=152), adrecizumab […]/kg (n=72) or adrecizumab […]/kg (n=77). All-cause mortality within 28 (90) days after inclusion was 25.8% (34.8%). Mean age was 68.4 years and 61% were male. For the per protocol analysis, n=294 patients remained eligible, and 14-day all-cause mortality rate was 18.5%.
To validate the findings from example 9 and for proof of concept, the different lower thresholds for DPP3 at baseline (day 1) were assessed for efficacy of the anti-ADM antibody (Adrecizumab) therapy in the septic shock population with high bio-ADM from the AdrenOSS-2 study cohort and patients with a DPP3 plasma value above the different lower thresholds were excluded from the analyses. Efficacy of the anti-ADM antibody therapy was specifically assessed to what concerns the mortality endpoint in the placebo and treated arms.
The DPP3 plasma levels in septic shock with high bio-ADM (above […]) patients (n=298) at baseline and in the following 144 h were statistically analysed with the aim of determining a DPP3 threshold at baseline to assess anti-ADM antibody therapy efficacy. Patients above the respective DPP3 plasma thresholds were excluded from the analyses. Different DPP3 plasma concentration thresholds have been applied for 28-day all-cause mortality evaluation using Kaplan-Meier plots comparing anti-ADM antibody therapy vs. placebo. The log-rank test was chosen for showing differences in mortality rates among treatment groups. Hazard ratios (HR) were calculated for each DPP3 plasma concentration threshold to estimate the reduction in mortality risk imposed by anti-ADM antibody therapy relative to placebo.

The conditions of series [2]: phase I study; cited from earlier work.
In series [3] the test system is mice with CLP-induced sepsis. The note with it: pre-treatment, cited from earlier work.
Series [4] relates to patients with septic shock. Briefly: AdrenOSS-2 phase II trial in patients with septic shock and elevated adrenomedullin: mortality vs placebo. The format is in vivo, human.
In a further series the test system is endotoxemic rats. Conditions: pre-treatment; cited from earlier work.

Read-outs that look alike come from different tables or passages of the source.

This is an account of results in US20260028423A1, “PREDICTION OF AN INCREASE OF DPP3 IN A PATIENT WITH SEPTIC SHOCK” (4TEEN4 Pharmaceuticals GmbH, priority 2022, published 2026).

For “Adrecizumab: humanized N-terminal anti-ADM antibody; heavy chain SEQ ID NO: 32, light chain SEQ ID NO: 33”, the “28-day all-cause mortality compared to the placebo arm” value in series [1] (DPP3 below 30 ng/ml (n=195)) is on record as “significantly reduced”; in series [1] (DPP3 below 50 ng/ml), “lower than the placebo arm”; in series [1] (DPP3 below 50 ng/ml at baseline and continuously low (<50 ng/ml) during the next 144 h) it was “significantly lower”. For the same substance, the “HR 28-day all-cause mortality” value in series [1] (baseline DPP3 threshold 22 ng/ml) was 0.258; in series [1] (baseline DPP3 threshold 30 ng/ml), 0.309; in series [1] (baseline DPP3 threshold 40 ng/ml), 0.568; in series [4] (baseline DPP3 threshold 50 ng/ml), 0.606. The serious adverse events entry in series [2] is given as “no serious adverse events were observed”. In addition, the 7-day survival was 40% in series [3] (repeated dose administration, control 0%) and 50% in series [3] (single dose, control 10%). Also, the renal vascular leakage entry (in series [3]; in the series on endotoxemic rats) was “attenuated” throughout. The “HR 14-day mortality” value came to 0.426 in series [4] (DPP3 <50 ng/mL on admission); 0.385 in series [4] (DPP3 <40); 0.449 in series [4] (DPP3 <60); 0.546 in series [4] (DPP3 <70); 1.69 in series [4] (DPP3 >50 ng/mL); 1.35 in series [4] (DPP3 >40). Besides, the entries for the “HR 14-day mortality” value in series [4] (DPP3 >60) and in series [4] (DPP3 >70) were 1.62 and 1.24, respectively.
